Measurements taken from US20140377259A1, “METHODS FOR INHIBITING HIV-1 REPLICATION INVOLVING THE ADMINISTRATION OF AN ANTI-CCR5 RECEPTOR MONOCLONAL ANTIBODY AND SMALL MOLECULE CCR5 RECEPTOR ANTAGONIST” (CytoDyn Inc., priority 2005, published 2014).
Where two headings read alike, the source gives them in different places.

Columns and labels:
[1] = tested on: HIV-1JR-FL envelope-mediated membrane fusion; assay type: cell-based
From the text: HIV-1 envelope-mediated membrane fusion was examined using a fluorescence resonance energy transfer (RET) assay (Litwin et al. 1996) with modifications. Briefly, HeLa cells that stably express HIV-1JR-FL gp120/gp41 (Litwin et al. 1996) and CEM.NKR-CCR5 cells (NIH AIDS Research and Reference Reagent Program, (Spenlehauer et al. 2001; Trkola et al. 1999)) were labeled separately overnight with fluorescein octadecyl ester (F18; Molecular Probes, Eugene, Oreg.) and rhodamine octadecyl ester (R18; Molecular Probes), respectively. […] The CD4 mAb Leu3a was used as a control inhibitor, and percent inhibition was calculated as: (RET in the absence of inhibitor−RET in the presence of inhibitor)/(RET in the absence of inhibitor−RET in the presence of Leu3a)×100.
(§1) Experimental design and data analysis were based on the combination index (CI) method (Chou et al. 1991; Chou et al. 1984). Compounds were tested individually and in combination at a fixed molar ratio over a range of serial dilutions. […] The mutually exclusive CI formula was used for combinations of CCR5 inhibitors, while the mutually non-exclusive formula was utilized for combinations of inhibitors to distinct targets (Chou et al. 1991). Each test was conducted 4-12 times. Synergy, additivity and antagonism are indicated by CI<1, CI=1 and CI>1, respectively.
Twenty-two synergy comparisons (11 compounds×2 CI values) were made based on data generated in the membrane fusion assay, resulting in a corrected P value of 0.0023.

CCR5 [2] = target: T1, CCR5 (Homo sapiens, UniProt P51681); assay: Competition binding: inhibition of PRO 140-PE binding to CEM.NKR-CCR5 cells (flow cytometry); conditions: for Inhibition of PRO 140-PE binding: unlabeled inhibitor pre-incubated 30 min, 5 nM PRO 140-PE
T1 construct: host or cells: CEM.NKR (human T cell leukemia line), transduced with CCR5
Protocol: Inhibition was assessed on the basis of both MFI (A) and percent cells gated (B).
Azide was added to block CCR5 internalization during the assay.

[3] = tested on: AD101- and SCH-D-resistant HIV-1 variants; conditions: primary CD4+ T-cells; cited from earlier work
[4] = tested on: reporter virus pseudotyped with HIV-1SF162 envelope; assay type: cell-based; conditions: 2nd inhibitor PRO 140, equimolar, 1:10 PRO 140 to zidovudine or nevirapine
Protocol: (§2) Cultures were incubated for 72 h at 37° C. in DMEM containing 10% fetal bovine serum, 1 mg/mL puromycin, 0.3 mg/mL geneticin, antibiotics, and 0.5% DMSO. Luciferase activity (relative light units or RLU) was measured using BrightGlo reagent (Promega, Madison, Wis.) according to the manufacturer's instructions. Percent inhibition was calculated as: (1−RLU in the presence of inhibitor/RLU in the absence of inhibitor)×100.
as §1

[5] = tested on: HIV-1 Env-mediated fusion (HeLa-EnvJRFL with CEM NKR-CCR5 cells); assay: HIV-1 RET cell-cell fusion assay (Part II, combination testing); assay type: cell-based; conditions: Drug 1 SCH-D with Drug 2 TAK-779, molar ratio 1:1
Protocol: Briefly, fluorescein octadecyl ester (F18; Molecular Probes, Eugene, Oreg.; 5 mg/ml in ethanol), was diluted 1:800 in DMEM labeling medium (DMEM; Invitrogen, Carlsbad, Calif.) with 10% fetal bovine serum (FBS; HyClone, Logan, Utah) and adjusted to an A506 of 0.34±10%. Octadecyl rhodamine B chloride (R18; Molecular Probes; 10 mg/ml in ethanol) was diluted 1:2050 in labeling medium and adjusted to an A565 of 0.52±10%. Both dyes were further diluted 2-fold by addition to cells in T75-cm^2 flasks. HeLa-EnvJRFL and CEM NKR-CCR5 cells were incubated overnight in F18- and R18-containing culture medium, respectively. […] The centrifugation/wash step was repeated twice, after which the cells were counted and concentrations adjusted to 1.5×10^6 cells/ml. […] The plates were then read on a fluorescence plate reader (Victor^2, Perkin Elmer, Boston, Mass.) using the excitation/emission filter combinations shown in Table 6.
The “% RET” was calculated according to the following formula after subtraction of background (blank) readings: […]
The “% Inhibition” was calculated according to the following formula: […]
Fifty percent inhibition (IC50) values were determined by fitting the inhibition data with a non-linear, four-parameter, variable slope equation (GraphPad Prism, 4.02; GraphPad Software, San Diego, Calif.). […]

[6] = tested on: reporter virus pseudotyped with HIV-1JR-FL envelope; assay type: cell-based
Protocol: as §2, §1

CCR5 [7] = target: T1, CCR5; assay: Competition binding: inhibition of 3H-UK-427,857 binding to CEM.NKR-CCR5 cells
From the text: Cells were washed and then analyzed for radioactivity by scintillation counting.
The cells were washed in PBSA and lysed with 0.5N HCl prior to scintillation counting using a Wallac 1410 instrument.

[8] = single administration of solution; cited from earlier work
HIV-1 = conditions: cited from earlier work
[9] = in vivo; cited from earlier work
[10] = design: species or system human; conditions: in vivo
Protocol: At the indicated times post-treatment, serum was collected, cryopreserved, and analyzed for PRO 140 levels. Data for individual patients are indicated.
Sera were diluted as appropriate and combined with L1.2-CCR5 cells, which are mouse pre-B lymphoma cells engineered to stably express human CCR5. […] Following incubation with test samples, cells were washed and combined with a FITC-labeled sheep antibody against human IgG4 (The Binding Site Limited, Cat. #AF009). Cells were washed again and analyzed by flow cytometry.
Serum was collected post-treatment, cryopreserved, and analyzed for PRO 140 levels. Peak serum concentrations ranged to […] at 0.1 mg/kg and […] at 0.5 mg/kg.

CCR5 [11] = target: T1, CCR5; assay: RANTES-induced calcium mobilization in L1.2-CCR5 cells; assay type: cell-based; conditions: FIG. 4
From the text: Similar results were obtained for […] and MIP-1β.

CCR5 lymphocytes = assay type: in vivo, human
Protocol: At the indicated times post-treatment, blood was collected and analyzed for CCR5 lymphocyte levels. The group mean values and standard deviations are indicated.
Whole blood specimens were combined separately with the indicated phycoerythrin-labeled anti-CCR5 antibodies or with appropriate isotype-control antibodies. Erythocytes were lysed and leukocytes were stabilized using the ImmunoPrep Reagent System (Beckman Coulter), and the cells were analyzed on a TQ Prep™ flow cytometry workstation (Beckman Coulter). Data were expressed as the percent of CCR5 cells relative to all cells gated in the analysis.
For up to 60 days post-treatment, at the times indicated in FIG. 6, blood was collected and analyzed for CCR5 lymphocyte levels.

HIV-1JR-CSF = assay: hu-PBL-SCID mouse model of HIV-1 infection; assay type: in vivo, SCID mice; conditions: multiple doses after steady state viral levels
Protocol: SCID mice were reconstituted with normal human peripheral blood mononuclear cells and infected 2 weeks later with HIV-1JR-CSF. Multiple doses of PRO 140 were administered following attainment of steady state viral levels. Plasma viral loads pre- and post-injection are indicated.

[12] = labelled 1st inhibitor with 2nd inhibitor PRO 140, equimolar
[13] = labelled 1st inhibitor with 2nd inhibitor UK-427,857, equimolar
[14] = envelope JRFL, 2nd inhibitor PRO 140, equimolar, 1:10 PRO 140 to zidovudine or nevirapine

T1 sequence (P51681 whole entry): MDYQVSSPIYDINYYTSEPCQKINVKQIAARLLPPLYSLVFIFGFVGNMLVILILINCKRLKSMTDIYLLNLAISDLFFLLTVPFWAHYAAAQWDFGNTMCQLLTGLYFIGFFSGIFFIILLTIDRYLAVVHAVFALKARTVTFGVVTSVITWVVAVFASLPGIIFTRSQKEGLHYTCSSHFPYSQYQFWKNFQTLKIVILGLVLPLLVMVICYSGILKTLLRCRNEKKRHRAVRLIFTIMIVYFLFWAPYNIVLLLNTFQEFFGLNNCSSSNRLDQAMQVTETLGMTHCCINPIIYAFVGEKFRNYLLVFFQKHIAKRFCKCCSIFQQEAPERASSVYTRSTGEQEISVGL

For “RANTES: CC-chemokine that serves as a natural ligand for CCR5”, the CI50 [1, 12] was 0.59 ± 0.08, the CI90 [1, 12] was 0.43 ± 0.05 and the CI50 [1, 13] was 0.48 ± 0.03. The CI90 [1, 13] was 0.18 ± 0.01.

In the case of COC[C@@H](c1ccc(C(F)(F)F)cc1)N1CCN(C2(C)CCN(C(=O)c3c(C)ncnc3C)CC2)C[C@@H]1C [SCH-D, 1-[(4,6-dimethyl-5pyrimidinyl)carbonyl]-4 [4-[2-methoxy-1(R)-4-(trifluoromethyl)phenyl]ethyl-3 (S)-methyl-1-piperazinyl]-4-methylpiperidine], the “Effect on percent of cells gated for positive binding of PRO 140-PE” value (CCR5 [2]; FIG. 16B) is listed as “little impact”, the “Inhibition of PRO 140-PE binding” value (CCR5 [2]) is listed as “modest levels of inhibition” and the “Sensitivity of SCH-D-resistant HIV-1 variant” value [3] is listed as “resistant”. The CI50 [4] was 0.60 ± 0.17, the CI90 [4] was 0.28 ± 0.11 and the “Mean DR (Drug 2)” value [5] was 4.31 ± 1.82. The CI50 [6, 14] was 0.47 ± 0.15, the CI90 [6, 14] was 0.18 ± 0.04 and the “Displacement of pre-bound 3H-UK-427,857 by unlabeled compound” value (CCR5 [7]) was “wasn't displaced”.

In the case of CCCCOCCOc1ccc(-c2ccc3c(c2)/C=C(/C(=O)Nc2ccc(OCc4cncn4CCC)cc2)CCCN3CC(C)C)cc1 [TAK-652], the Safety and tolerability [8] is given as “safe and well tolerated”, the “Anti-HIV-1 activity in vitro” value (HIV-1) is given as “nanomolar range” and the Oral bioavailability [9] is given as “orally bioavailable”.

In the case of CCO/N=C(\c1ccc(Br)cc1)C1CCN(C2(C)CCN(C(=O)c3c(C)cc[n+]([O-])c3C)CC2)CC1 [SCH-C], the “Sensitivity of AD101-resistant HIV-1 variant” value [3] is listed as “resistant”.

In the case of Cc1ccc(-c2ccc3c(c2)C=C(C(=O)Nc2ccc(C[N+](C)(C)C4CCOCC4)cc2)CCC3)cc1.[Cl-] [TAK-779], the “Inhibition of HIV-1 pseudovirus entry” value ([6]; compound alone, data not shown) is listed as “Neither TAK-779 nor RANTES mediated consistent, high-level inhibition” and the Oral bioavailability [9] is listed as “poor oral bioavailability”.

B1: PRO 140: humanized IgG4,κ anti-CCR5 monoclonal antibody, humanized version of murine mAb PA14 (antibody, chains of the INN, looked up, V domains shown)
VH: EVQLVESGGGLVKPGGSLRLSCAASGYTFSNYWIGWVRQAPGKGLEWIGDIYPGGNYIRNNEKFKDKTTLSADTSKNTAYLQMNSLKTEDTAVYYCGSSFGSNYVFAWFTYWGQGTLVTVSS
VL: DIVMTQSPLSLPVTPGEPASISCRSSQRLLSSYGHTYLHWYLQKPGQSPQLLIYEVSNRFSGVPDRFSGSGSGTDFTLKISRVEAEDVGVYYCSQSTHVPLTFGQGTKVEIK
With B1 the “Inhibition of PRO 140-PE binding” value (CCR5 [2]) was “Complete inhibition”, the “Dose dependence of serum concentrations” value [10] was “increased proportionally with dose level” and the “Effect on RANTES-induced calcium mobilization versus HIV-1JR-FL replication in PBMC” value (CCR5 [11]) was “blocks HIV-1 but not chemokine signaling”. The “Overall number of CCR5 lymphocytes (CTC5 binding)” value (CCR5 lymphocytes; in vivo, iv, 2 mg/kg) was “no decrease”, the “Binding of antibody 2D7 (CCR5 lymphocytes not coated with PRO 140)” value (CCR5 lymphocytes; single 2 mg/kg intravenous infusion) was “significantly decreased” and the “Displacement of pre-bound 3H-UK-427,857 by unlabeled compound” value (CCR5 [7]; cells pre-incubated with 2 nM 3H-UK-427,857, unlabeled compound 30 min) was “wasn't displaced”. For the same molecule, the “Control of viral replication (plasma viral load)” value (HIV-1JR-CSF) was “prolonged control of viral replication”.
